The supplement of paper PMC12370961

Columns and labels:
Assay in all cases: differential drug sensitivity score (dDSS) relative to sarcoma reference cohort mean DSS (DSS units (0-100 scale difference)); higher = more selective sensitivity than reference sarcomas
Settings in all cases: exposure time: 72 h; concentration range: 10-10000 nM
ES-ZH001 = tested on: ES-ZH001 (patient-derived Ewing sarcoma tumoroid)
Method: (§1)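 Drug response profiling of patient-derived Ewing sarcoma and CIC::DUX4 sarcoma tumoroid models (or cells tested directly after isolation from the tumor, 'direct'). The DSS is the normalised AUC (0-100); dDSS is the sample DSS minus the mean DSS of a 34-sarcoma reference cohort profiled in the same lab.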

ES-ZH008 = tested on: ES-ZH008 (patient-derived Ewing sarcoma tumoroid)
Method: as §1

CDS-ZH001-2 = tested on: CDS-ZH001-2 (patient-derived CIC-DUX4 sarcoma tumoroid)
Method: as §1

ES-ZH007 = tested on: ES-ZH007 (patient-derived Ewing sarcoma tumoroid)
Method: as §1

ES-ZH004 = tested on: ES-ZH004 (patient-derived Ewing sarcoma tumoroid)
Method: as §1

ES-ZH016 = tested on: ES-ZH016 (patient-derived Ewing sarcoma tumoroid)
Method: as §1

ES-ZH009 = tested on: ES-ZH009 (patient-derived Ewing sarcoma tumoroid)
Method: as §1

CDS-ZH002 direct = tested on: CDS-ZH002 direct (CIC-DUX4 sarcoma cells right after isolation)
Method: as §1

CDS-ZH003 = tested on: CDS-ZH003 (patient-derived CIC-DUX4 sarcoma tumoroid)
Method: as §1

CDS-ZH001 = tested on: CDS-ZH001 (patient-derived CIC-DUX4 sarcoma tumoroid)
Method: as §1

CDS-ZH002 = tested on: CDS-ZH002 (patient-derived CIC-DUX4 sarcoma tumoroid)
Method: as §1

ES-ZH016 direct = tested on: ES-ZH016 direct (Ewing sarcoma cells right after isolation)
Method: as §1

ES-ZH002 = tested on: ES-ZH002 (patient-derived Ewing sarcoma tumoroid)
Method: as §1

Cn1nnc2c(C(N)=O)ncn2c1=O [Temozolomide]
differential drug sensitivity score (ES-ZH001): 3.2
differential drug sensitivity score (ES-ZH008): -1.3
differential drug sensitivity score (CDS-ZH001-2): 3.5
differential drug sensitivity score (ES-ZH007): -1.3
differential drug sensitivity score (ES-ZH004): -1.7
differential drug sensitivity score (ES-ZH016): 13.8
differential drug sensitivity score (ES-ZH009): 7
differential drug sensitivity score (CDS-ZH002 direct): 1.1
differential drug sensitivity score (CDS-ZH003): 7.1
differential drug sensitivity score (CDS-ZH001): 3.6
differential drug sensitivity score (CDS-ZH002): 1.4
differential drug sensitivity score (ES-ZH016 direct): 14.8
differential drug sensitivity score (ES-ZH002): 2.1

CO[C@H]1C[C@@H]2CC[C@@H](C)[C@@](O)(O2)C(=O)C(=O)N2CCCC[C@H]2C(=O)O[C@H]([C@H](C)C[C@@H]2CC[C@@H](OC(=O)C(C)(CO)CO)[C@H](OC)C2)CC(=O)[C@H](C)/C=C(\C)[C@@H](O)[C@@H](OC)C(=O)[C@H](C)C[C@H](C)/C=C/C=C/C=C/1C [Temsirolimus]
differential drug sensitivity score (ES-ZH001): 6.2
differential drug sensitivity score (ES-ZH008): 3.1
differential drug sensitivity score (CDS-ZH001-2): 4
differential drug sensitivity score (ES-ZH007): 5.9
differential drug sensitivity score (ES-ZH004): 8.3
differential drug sensitivity score (ES-ZH016): -3
differential drug sensitivity score (ES-ZH009): 11.1
differential drug sensitivity score (CDS-ZH002 direct): 4.8
differential drug sensitivity score (CDS-ZH003): 2.1
differential drug sensitivity score (CDS-ZH001): 0.8
differential drug sensitivity score (CDS-ZH002): -7
differential drug sensitivity score (ES-ZH016 direct): -6.2
differential drug sensitivity score (ES-ZH002): 15.8

CN1CCC(COc2cnc(-c3cccc(Cn4nc(-c5cccc(C#N)c5)ccc4=O)c3)nc2)CC1 [Tepotinib]
differential drug sensitivity score (ES-ZH001): 4.4
differential drug sensitivity score (ES-ZH008): -4.7
differential drug sensitivity score (CDS-ZH001-2): -2.5
differential drug sensitivity score (ES-ZH007): -0.6
differential drug sensitivity score (ES-ZH004): -4.7
differential drug sensitivity score (ES-ZH016): -4.3
differential drug sensitivity score (ES-ZH009): 9
differential drug sensitivity score (CDS-ZH002 direct): 2.3
differential drug sensitivity score (CDS-ZH003): 3.5
differential drug sensitivity score (CDS-ZH001): -1.4
differential drug sensitivity score (CDS-ZH002): -5.4
differential drug sensitivity score (ES-ZH016 direct): -4.5
differential drug sensitivity score (ES-ZH002): 0.6

Nc1nc2[nH]cnc2c(=S)[nH]1 [Thioguanine]
differential drug sensitivity score (ES-ZH001): 15.5
differential drug sensitivity score (ES-ZH008): 10.4
differential drug sensitivity score (CDS-ZH001-2): 5.1
differential drug sensitivity score (ES-ZH007): 1.2
differential drug sensitivity score (ES-ZH004): 12.4
differential drug sensitivity score (ES-ZH016): -4.8
differential drug sensitivity score (ES-ZH009): 9.6
differential drug sensitivity score (CDS-ZH002 direct): 2.5
differential drug sensitivity score (CDS-ZH003): -4.2
differential drug sensitivity score (CDS-ZH001): 1
differential drug sensitivity score (CDS-ZH002): 0.2
differential drug sensitivity score (ES-ZH016 direct): 3.7
differential drug sensitivity score (ES-ZH002): 17.1

S=P(N1CC1)(N1CC1)N1CC1 [Thiotepa]
differential drug sensitivity score (ES-ZH001): 7
differential drug sensitivity score (ES-ZH008): 8.7
differential drug sensitivity score (CDS-ZH001-2): 0.2
differential drug sensitivity score (ES-ZH007): 3.1
differential drug sensitivity score (ES-ZH004): 5.2
differential drug sensitivity score (ES-ZH016): 9.2
differential drug sensitivity score (ES-ZH009): -1.4
differential drug sensitivity score (CDS-ZH002 direct): -4.2
differential drug sensitivity score (CDS-ZH003): 9.4
differential drug sensitivity score (CDS-ZH001): 4.6
differential drug sensitivity score (CDS-ZH002): -3.1
differential drug sensitivity score (ES-ZH016 direct): 17
differential drug sensitivity score (ES-ZH002): 11.2

O=C(Cc1ccc(-c2ccc(OCCN3CCOCC3)cc2)cn1)NCc1ccccc1 [Tirbanibulin]
differential drug sensitivity score (ES-ZH001): 9.3
differential drug sensitivity score (ES-ZH008): 6.4
differential drug sensitivity score (CDS-ZH001-2): 1.4
differential drug sensitivity score (ES-ZH007): 4.5
differential drug sensitivity score (ES-ZH004): 5.9
differential drug sensitivity score (ES-ZH016): 11.4
differential drug sensitivity score (ES-ZH009): 10.5
differential drug sensitivity score (CDS-ZH002 direct): 1.7
differential drug sensitivity score (CDS-ZH003): -7.7
differential drug sensitivity score (CDS-ZH001): 8.2
differential drug sensitivity score (CDS-ZH002): 4
differential drug sensitivity score (ES-ZH016 direct): 7.2
differential drug sensitivity score (ES-ZH002): 13.5

O=C1NC(=O)[C@@H](c2cn3c4c(cccc24)CCC3)[C@@H]1c1c[nH]c2ccccc12 [Tivantinib]
differential drug sensitivity score (ES-ZH001): 9.4
differential drug sensitivity score (ES-ZH008): -1.9
differential drug sensitivity score (CDS-ZH001-2): -0.2
differential drug sensitivity score (ES-ZH007): 2.7
differential drug sensitivity score (ES-ZH004): 1
differential drug sensitivity score (ES-ZH016): 7.4
differential drug sensitivity score (ES-ZH009): 7.7
differential drug sensitivity score (CDS-ZH002 direct): -1.2
differential drug sensitivity score (CDS-ZH003): -3.8
differential drug sensitivity score (CDS-ZH001): 2.5
differential drug sensitivity score (CDS-ZH002): -3.1
differential drug sensitivity score (ES-ZH016 direct): 2.2
differential drug sensitivity score (ES-ZH002): 9.4

C[C@@H]1CCN(C(=O)CC#N)C[C@@H]1N(C)c1ncnc2[nH]ccc12 [Tofacitinib]
differential drug sensitivity score (ES-ZH001): 5.4
differential drug sensitivity score (ES-ZH008): 4.8
differential drug sensitivity score (CDS-ZH001-2): -1.3
differential drug sensitivity score (ES-ZH007): -1
differential drug sensitivity score (ES-ZH004): 0.8
differential drug sensitivity score (ES-ZH016): -1.3
differential drug sensitivity score (ES-ZH009): -0.3
differential drug sensitivity score (CDS-ZH002 direct): 0.3
differential drug sensitivity score (CDS-ZH003): -3.7
differential drug sensitivity score (CDS-ZH001): -1.3
differential drug sensitivity score (CDS-ZH002): -1.3
differential drug sensitivity score (ES-ZH016 direct): -1.3
differential drug sensitivity score (ES-ZH002): 6.4

CC[C@@]1(O)C(=O)OCc2c1cc1n(c2=O)Cc2cc3c(CN(C)C)c(O)ccc3nc2-1 [Topotecan]
differential drug sensitivity score (ES-ZH001): 19.4
differential drug sensitivity score (ES-ZH008): 10.8
differential drug sensitivity score (CDS-ZH001-2): 3.4
differential drug sensitivity score (ES-ZH007): 19.4
differential drug sensitivity score (ES-ZH004): 16.4
differential drug sensitivity score (ES-ZH016): 19.6
differential drug sensitivity score (ES-ZH009): 15.8
differential drug sensitivity score (CDS-ZH002 direct): -4.9
differential drug sensitivity score (CDS-ZH003): 8
differential drug sensitivity score (CDS-ZH001): 5.3
differential drug sensitivity score (CDS-ZH002): -2.7
differential drug sensitivity score (ES-ZH016 direct): 7.3
differential drug sensitivity score (ES-ZH002): 20.1

CCC(=O)N1CCN(c2ccc(-n3c(=O)ccc4cnc5ccc(-c6cnc7ccccc7c6)cc5c43)cc2C(F)(F)F)CC1 [Torin-1]
differential drug sensitivity score (ES-ZH001): -3.5
differential drug sensitivity score (ES-ZH008): 0.8
differential drug sensitivity score (CDS-ZH001-2): 1.9
differential drug sensitivity score (ES-ZH007): -0.5
differential drug sensitivity score (ES-ZH004): -2.7
differential drug sensitivity score (ES-ZH016): -1.2
differential drug sensitivity score (ES-ZH009): 6.3
differential drug sensitivity score (CDS-ZH002 direct): -8.4
differential drug sensitivity score (CDS-ZH003): 4.4
differential drug sensitivity score (CDS-ZH001): 4.9
differential drug sensitivity score (CDS-ZH002): -4
differential drug sensitivity score (ES-ZH016 direct): -6.9
differential drug sensitivity score (ES-ZH002): 6.9

CC(C)n1nc(-c2cc3cc(O)ccc3[nH]2)c2c(N)ncnc21 [Torkinib]
differential drug sensitivity score (ES-ZH001): 2.1
differential drug sensitivity score (ES-ZH008): 8.1
differential drug sensitivity score (CDS-ZH001-2): 2.3
differential drug sensitivity score (ES-ZH007): 1.1
differential drug sensitivity score (ES-ZH004): 5.2
differential drug sensitivity score (ES-ZH016): 2.2
differential drug sensitivity score (ES-ZH009): 2
differential drug sensitivity score (CDS-ZH002 direct): -0.9
differential drug sensitivity score (CDS-ZH003): -3.5
differential drug sensitivity score (CDS-ZH001): 4.4
differential drug sensitivity score (CDS-ZH002): -1.3
differential drug sensitivity score (ES-ZH016 direct): -1.3
differential drug sensitivity score (ES-ZH002): 13.7

CC(=O)Nc1cccc(-n2c(=O)n(C3CC3)c(=O)c3c(Nc4ccc(I)cc4F)n(C)c(=O)c(C)c32)c1 [Trametinib]
differential drug sensitivity score (ES-ZH001): 3.2
differential drug sensitivity score (ES-ZH008): 4.1
differential drug sensitivity score (CDS-ZH001-2): -3.5
differential drug sensitivity score (ES-ZH007): -3.5
differential drug sensitivity score (ES-ZH004): 1.5
differential drug sensitivity score (ES-ZH016): -3.5
differential drug sensitivity score (ES-ZH009): -3.5
differential drug sensitivity score (CDS-ZH002 direct): -3.5
differential drug sensitivity score (CDS-ZH003): 3.2
differential drug sensitivity score (CDS-ZH001): -3.5
differential drug sensitivity score (CDS-ZH002): -3.5
differential drug sensitivity score (ES-ZH016 direct): -3.5
differential drug sensitivity score (ES-ZH002): 9.5

Cn1ncc(Cl)c1-c1cc(C(=O)N[C@H](CN)Cc2ccc(F)c(F)c2)oc1Cl [Uprosertib]
differential drug sensitivity score (ES-ZH001): -2.4
differential drug sensitivity score (ES-ZH008): 11.2
differential drug sensitivity score (CDS-ZH001-2): 3.3
differential drug sensitivity score (ES-ZH007): 1
differential drug sensitivity score (ES-ZH004): 7.2
differential drug sensitivity score (ES-ZH016): 1
differential drug sensitivity score (ES-ZH009): 5.6
differential drug sensitivity score (CDS-ZH002 direct): -6
differential drug sensitivity score (CDS-ZH003): -2.5
differential drug sensitivity score (CDS-ZH001): 3.3
differential drug sensitivity score (CDS-ZH002): -3.2
differential drug sensitivity score (ES-ZH016 direct): -3.2
differential drug sensitivity score (ES-ZH002): 10.7

CCCC(CCC)C(=O)O [Valproic acid]
differential drug sensitivity score (ES-ZH001): 2.8
differential drug sensitivity score (ES-ZH008): 1.7
differential drug sensitivity score (CDS-ZH001-2): -0.9
differential drug sensitivity score (ES-ZH007): 0.9
differential drug sensitivity score (ES-ZH004): 8.2
differential drug sensitivity score (ES-ZH016): -2.5
differential drug sensitivity score (ES-ZH009): 1.7
differential drug sensitivity score (CDS-ZH002 direct): -1.9
differential drug sensitivity score (CDS-ZH003): -1.3
differential drug sensitivity score (CDS-ZH001): -2.5
differential drug sensitivity score (CDS-ZH002): -2.5
differential drug sensitivity score (ES-ZH016 direct): 6.5
differential drug sensitivity score (ES-ZH002): 4.4

C[C@]1(c2nc3c(C(N)=O)cccc3[nH]2)CCCN1 [Veliparib]
differential drug sensitivity score (ES-ZH001): 4.9
differential drug sensitivity score (ES-ZH008): 5.8
differential drug sensitivity score (CDS-ZH001-2): -1.2
differential drug sensitivity score (ES-ZH007): 1.4
differential drug sensitivity score (ES-ZH004): 5.1
differential drug sensitivity score (ES-ZH016): 1.2
differential drug sensitivity score (ES-ZH009): -1.3
differential drug sensitivity score (CDS-ZH002 direct): -1.3
differential drug sensitivity score (CDS-ZH003): -0.6
differential drug sensitivity score (CDS-ZH001): -1.3
differential drug sensitivity score (CDS-ZH002): -1.3
differential drug sensitivity score (ES-ZH016 direct): 5.6
differential drug sensitivity score (ES-ZH002): 8.8
